{"source": "patent US20070043121A1", "about": "(priority 2003, published 2007)", "origin": "cited, not measured here", "key": {"[1]": {"system": "sodium channel (3H-batrachotoxin)"}, "[2]": {"settings": "water"}}, "data": [{"molecule": "CC(C)c1cccc(C(C)C)c1O", "note": "[Propofal, 2,6-diisopropylphenol]", "values": [{"measurement": "IC50", "setting": "[1]", "result": 26, "unit": "µM"}, {"measurement": "aqueous solubility", "setting": "[2]", "result": "very water insoluble"}]}]}
